Drawing on publication PMC8857470, “Molecular insights into the maturation of phosphodiesterase 6 by the specialized chaperone complex of HSP90 with AIPL1” (The Journal of Biological Chemistry, 2022), this text covers Kd for one molecule.

The test has as its target T1, AIPL1 (full-length mouse AIPL1) (Mus musculus, UniProt Q924K1).
T1 construct: full-length (aa 1-328), His6-tagged from pET15b, expressed in E. coli BL21(DE3), purified by Ni-NTA, Mono Q and SEC; prenyl site in the FKBP domain
T1 sequence (Q924K1 1-328): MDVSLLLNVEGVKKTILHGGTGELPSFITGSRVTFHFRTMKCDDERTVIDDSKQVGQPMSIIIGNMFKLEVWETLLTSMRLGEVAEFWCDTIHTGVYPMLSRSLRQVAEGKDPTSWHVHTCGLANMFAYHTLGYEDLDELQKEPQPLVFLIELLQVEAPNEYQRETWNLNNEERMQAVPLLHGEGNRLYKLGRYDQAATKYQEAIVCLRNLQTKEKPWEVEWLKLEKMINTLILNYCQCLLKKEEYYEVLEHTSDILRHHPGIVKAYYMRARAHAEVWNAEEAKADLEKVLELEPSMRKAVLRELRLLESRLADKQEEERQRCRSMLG
As to the kind of experiment: fluorescence titration, ex […] nm, em […] nm, fit with ligand depletion. In kind it is binding.

The structures appear in SMILES notation.

As to `CC(C)=CCC/C(C)=C/CC/C(C)=C/CSC[C@H](NC(=O)CCCCCNC(=O)Cc1c(C)c2ccc(N)cc2oc1=O)C(=O)O` [farnesyl-Cys-AMCA], the dissociation constant (Kd) – broadly, a measure of binding affinity in units of concentration – is 700 ± 100 nM.
